Test results taken from PMC6175296 (Clinical Pharmacology and Therapeutics, 2017).
pKi: −log10 of the molar value. “Also recorded” adds a separate entry of the source. Like-named read-outs stand apart in the source and are kept apart here.

Key:
[1] = format: in vivo, humans
[2] = cited from earlier work
[3] = cited from earlier work; remark: listed apart in the source
CYP2C8 [4] = settings: read-out: CYP2C8 Ki; microsomal protein concentration 0.25 mg/mL; cited from earlier work
[5] = cited from earlier work; remark: listed apart in the source
[6] = for AUC(0-inf): AUC0–∞; for tmax: median (range)
CYP2C8 [7] = molecular target: T1, CYP2C8 (Homo sapiens, UniProt P10632); test: In vivo CYP2C8 inhibition judged from montelukast pharmacokinetics; settings: montelukast as CYP2C8 probe substrate
T1 sequence (P10632 1-490): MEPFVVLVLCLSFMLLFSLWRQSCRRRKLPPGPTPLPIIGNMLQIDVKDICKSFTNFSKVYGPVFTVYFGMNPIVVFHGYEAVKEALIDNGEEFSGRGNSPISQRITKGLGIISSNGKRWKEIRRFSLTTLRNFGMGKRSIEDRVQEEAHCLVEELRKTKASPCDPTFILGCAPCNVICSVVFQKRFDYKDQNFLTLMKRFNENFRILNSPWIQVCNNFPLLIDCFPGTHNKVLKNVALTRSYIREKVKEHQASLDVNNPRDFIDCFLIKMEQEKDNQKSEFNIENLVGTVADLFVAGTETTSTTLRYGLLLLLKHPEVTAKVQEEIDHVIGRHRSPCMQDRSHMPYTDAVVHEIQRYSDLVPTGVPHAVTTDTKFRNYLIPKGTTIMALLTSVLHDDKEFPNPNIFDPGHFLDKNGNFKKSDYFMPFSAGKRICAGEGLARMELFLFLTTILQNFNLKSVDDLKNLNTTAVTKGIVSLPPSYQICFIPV

OATP1B1 = settings: read-out: OATP1B1 Ki; “Clopidogrel 25” model; published value; cited from earlier work
[8] = after 60 mg prasugrel oral, day 1, median (range)
[9] = after 300 mg clopidogrel oral, day 1, median (range)
[10] = both, human, plasma, po, 300 mg

Question: Which AUC0-13h [1, 8] does the source give for O=C1C=C2CN(C(C(=O)C3CC3)c3ccccc3F)CCC2S1 (centres unmarked) [Prasugrel inactive metabolite (R‐95913)] here?
Answer: Its AUC0-13h is 495 (247–1140) ng·h/mL.

Question: What about the Cmax [1, 8] of the same molecule?
Answer: The Cmax was 240 (105–692) ng/mL.

Question: What about the tmax [1, 8] of the same molecule?
Answer: The tmax was 0.92 (0.92–1.5) h.

Question: What about the t½ [1, 8] of the same molecule?
Answer: Its t½ is 7.1 (6.0–9.2) h.

Question: Which oral bioavailability [2] does the source give for CC(C)(O)c1ccccc1CC[C@@H](SCC1(CC(=O)O)CC1)c1cccc(/C=C/c2ccc3ccc(Cl)cc3n2)c1 [Montelukast] here?
Answer: Its oral bioavailability is 60–70%.

Question: What about the “AUC increase by clarithromycin” value [3] of the same molecule?
Answer: The value was 2.4 fold.

Question: What about the “CYP2C8 inhibition in humans” value [3] of the same molecule?
Answer: Its value is “not a significant inhibitor of CYP2C8”.

Question: What about the “decrease in exposure by fluconazole” value [3] of the same molecule?
Answer: The value was 30–40%.

Question: And the “bound to plasma proteins” value [5]?
Answer: The value was “about 99.8%”.

Question: What about the AUC(0-inf) ([6]; both, human, plasma, oral, 10 mg, placebo phase, geometric mean (geometric CV)) of the same molecule?
Answer: Its AUC(0-inf) is 3020 ng·h/mL.

Question: And the tmax ([6]; both, human, plasma, oral, 10 mg, placebo phase)?
Answer: The tmax was 3.5 h.

Question: What about the AUC(0-inf) ([6]; both, human, plasma, oral, clopidogrel phase, geometric mean (geometric CV)) of the same molecule?
Answer: The AUC(0-inf) was 5990 ng·h/mL.

Question: What about the AUC(0-inf) ([6]; both, human, plasma, oral, prasugrel phase, geometric mean (geometric CV)) of the same molecule?
Answer: The AUC(0-inf) was 2800 ng·h/mL.

Question: And the tmax ([6]; both, human, plasma, oral, clopidogrel phase)?
Answer: The tmax was 4.5 h.

Question: What about the tmax ([6]; both, human, plasma, oral, prasugrel phase) of the same molecule?
Answer: The tmax was 3 h.

Question: And the half-life ([6]; both, human, plasma, oral, t½, clopidogrel phase, geometric mean (geometric CV))?
Answer: Its half-life is 8.2 h.

Question: And the t½ ([6]; placebo phase, geometric mean (geometric CV))?
Answer: Its t½ is 4.51 (18) h.

Question: What about the “prolongation in t½” value ([6]; prasugrel phase vs placebo) of the same molecule?
Answer: The value was 15%.

Question: And the “t½ prolongation by prasugrel” value ([6]; prasugrel phase vs placebo)?
Answer: The value was 1.15 fold.

Question: What about the t½ ([6]; prasugrel phase, geometric mean (geometric CV)) of the same molecule?
Answer: The t½ was 5.16 (20) h.

Question: Which AUC0-13h [1, 9] does the source give for O=C(O)[C@H](c1ccccc1Cl)N1CCc2sccc2C1 [Clopidogrel carboxylic acid] here?
Answer: Its AUC0-13h is 38,500 (22,000–53,400) ng·h/mL.

Question: What about the Cmax [1, 9] of the same molecule?
Answer: The Cmax was 11,500 (7,410–19,700) ng/mL.

Question: What about the tmax [1, 9] of the same molecule?
Answer: Its tmax is 0.92 (0.92–1.5) h.

Question: What about the t½ [1, 9] of the same molecule?
Answer: The t½ was 7.3 (5.8–9.2) h.

Question: For COC(=O)[C@H](c1ccccc1Cl)N1CCc2sccc2C1 [Clopidogrel], which “clinically relevant inhibition of CYP3A4 or OATP1B1” value ([3]; pitavastatin and simvastatin as substrates) is on record?
Answer: Its value is “not a clinically relevant inhibitor of CYP3A4 or OATP1B1”.

Question: And the “CYP2C8 inhibition in humans (conclusion)” value (CYP2C8 [7])?
Answer: The value was “at least a moderate inhibitor of CYP2C8; also recorded: weaker CYP2C8 inhibitor than gemfibrozil”.

Question: What about the AUC(0-t) [1, 10] of the same molecule?
Answer: Its AUC(0-t) is 13.2 ng·h/mL.

Question: What about the Cmax [1, 10] of the same molecule?
Answer: The Cmax was 3.53 ng/mL.

Question: And the half-life [1, 10]?
Answer: Its half-life is 4.8 h.

Question: What about the tmax [1, 10] of the same molecule?
Answer: Its tmax is 1.5 h.

Question: Which “CYP2C8 inhibition in humans (conclusion)” value (CYP2C8 [7]) does the source give for CC(=O)Oc1cc2c(s1)CCN(C(C(=O)C1CC1)c1ccccc1F)C2 (centres unmarked) [Prasugrel] here?
Answer: The value was “not a clinically relevant CYP2C8 inhibitor; also recorded: not a significant inhibitor of CYP2C8”.

Question: For O=C(O)/C=C1/CN(C(C(=O)C2CC2)c2ccccc2F)CCC1S (centres unmarked) [Prasugrel active metabolite (R‐138727)], which AUC0-13h [1, 8] is on record?
Answer: Its AUC0-13h is 495 (249–1090) ng·h/mL.

Question: What about the Cmax [1, 8] of the same molecule?
Answer: The Cmax was 428 (210–865) ng/mL.

Question: And the tmax [1, 8]?
Answer: The tmax was 0.92 (0.92–0.92) h.

Question: And the t½ [1, 8]?
Answer: The t½ was 3.9 (3.2–5.5) h.

Question: What does the source list for CCc1ccc(CCOc2ccc(CC3SC(=O)NC3=O)cc2)nc1 (centres unmarked) [Pioglitazone]?
Answer: AUC increase by gemfibrozil ([3]; previous studies): about 3 fold; AUC increase by clopidogrel ([3]; previously reported): 2.0–2.1 fold

Question: With O=C(O)[C@H]1O[C@@H](OC(=O)[C@H](c2ccccc2Cl)N2CCc3sccc3C2)[C@H](O)[C@@H](O)[C@@H]1O [Clopidogrel acyl‐β‐D‐glucuronide] as the molecule, how does the AUC0-13h [1, 9] read?
Answer: The AUC0-13h was 16,200 (7,030–34,200) ng·h/mL.

Question: What about the Cmax [1, 9] of the same molecule?
Answer: The Cmax was 3,290 (1,470–9,680) ng/mL.

Question: What about the tmax [1, 9] of the same molecule?
Answer: The tmax was 1.5 (0.92–3.0) h.

Question: And the t½ [1, 9]?
Answer: Its t½ is 4.6 (3.9–6.6) h.

Question: And the pKi (OATP1B1)?
Answer: Its pKi is 5.26.

Question: What does the source list for COC(=O)[C@H](c1ccccc1Cl)N1CC[C@@H](S)/C(=C\C(=O)O)C1 [Clopidogrel active metabolite]?
Answer: AUC0-13h [1, 9]: 32.0 (17.0–101) ng·h/mL; Cmax [1, 9]: 23.4 (12.6–80.1) ng/mL; tmax [1, 9]: 0.92 (0.92–1.5) h; t½ [1, 9]: 3.4 (0.84–4.8) h
